Measurements: patent publication US9567317B2, “Multicomponent crystalline system comprising nilotinib and selected co-crystal formers” (BASF SE, priority 2012, dated 2017)

Settings: relative humidity changed from 0 to 95% according to the measurement program (FIG. 4)

For Cc1cn(-c2cc(NC(=O)c3ccc(C)c(Nc4nccc(-c5cccnc5)n4)c3)cc(C(F)(F)F)c2)cn1.Cl.O.O [Nilotinib monohydrochloride dihydrate form A], the “water content change (water uptake)” value was “Δm = 4.2%”.
With Cc1cn(-c2cc(NC(=O)c3ccc(C)c(Nc4nccc(-c5cccnc5)n4)c3)cc(C(F)(F)F)c2)cn1.Cl.O [Nilotinib monohydrochloride monohydrate form B] the “water content change (water uptake)” value was “Δm = 3.2%”.
